Earlier results as cited in patent publication US20230139888A1, “MOISTURIZING PEEL CREAM FOR ENHANCING SKIN” (L'OREAL, priority 2021, published 2023).

Conditions: acute oral toxicity, mutagenicity, skin irritation, skin sensitization, phototoxicity

## CC(c1ccccc1)c1ccc(O)cc1O (stereo not shown) [Phenylethyl resorcinol]
  adverse effects in basic toxicological tests: has not shown adverse effects
